Test results published in ChEMBL document CHEMBL4004838, “Design and synthesis of novel phenyl -1, 4-beta-carboline-hybrid molecules as potential anticancer agents” (Eur J Med Chem, 2017).

Key:
Assay type in all cases: functional
NCI-H322M = assay: Growth inhibition of human NCI-H322M cells assessed as cell growth at 0.01 uM incubated for 48 hrs by sulforhodamine B assay relative to control; conditions: read-out: Activity
TK-10 [1] = assay: Growth inhibition of human TK10 cells assessed as cell growth at 0.1 uM incubated for 48 hrs by sulforhodamine B assay relative to control; conditions: TK-10, 48 h, read-out: Activity
NCI-H460 = assay: Growth inhibition of human NCI-H460 cells assessed as cell growth at 100 uM incubated for 48 hrs by sulforhodamine B assay relative to control; conditions: NCI-H460, 48 h, read-out: Activity
IGROV-1 = assay: Growth inhibition of human IGROV1 cells assessed as cell growth at 0.1 uM incubated for 48 hrs by sulforhodamine B assay relative to control; conditions: IGROV-1, 48 h, read-out: Activity
NCI/ADR-RES = assay: Growth inhibition of human NCI-ADR-RES cells assessed as cell growth at 1 uM incubated for 48 hrs by sulforhodamine B assay relative to control; conditions: read-out: Activity
HL-60(TB) = assay: Growth inhibition of human HL-60(TB) cells incubated for 48 hrs by sulforhodamine B assay; conditions: HL-60, 48 h
COLO 205 = assay: Growth inhibition of human COLO205 cells assessed as cell growth at 100 uM incubated for 48 hrs by sulforhodamine B assay relative to control; conditions: COLO 205, 48 h, read-out: Activity
Malme-3M = assay: Growth inhibition of human MALME-3M cells incubated for 48 hrs by sulforhodamine B assay
PC-3 [2] = assay: Growth inhibition of human PC3 cells incubated for 48 hrs by sulforhodamine B assay; conditions: PC-3, 48 h
Hs-578T [3] = assay: Growth inhibition of human Hs 578T cells assessed as cell growth at 100 uM incubated for 48 hrs by sulforhodamine B assay relative to control; conditions: read-out: Activity
SK-MEL-28 = assay: Growth inhibition of human SK-MEL-28 cells assessed as cell growth at 0.1 uM incubated for 48 hrs by sulforhodamine B assay relative to control; conditions: SK-MEL-28, 48 h, read-out: Activity
MDA-MB-468 = assay: Growth inhibition of human MDA-MB-468 cells incubated for 48 hrs by sulforhodamine B assay; conditions: MDA-MB-468, 48 h
OVCAR-5 = assay: Growth inhibition of human OVCAR5 cells assessed as cell growth at 100 uM incubated for 48 hrs by sulforhodamine B assay relative to control; conditions: OVCAR-5, 48 h, read-out: Activity
HCT-116 = assay: Growth inhibition of human HCT116 cells assessed as cell growth at 0.1 uM incubated for 48 hrs by sulforhodamine B assay relative to control; conditions: HCT-116, 48 h, read-out: Activity
MOLT-4 = assay: Growth inhibition of human MOLT4 cells incubated for 48 hrs by sulforhodamine B assay; conditions: MOLT-4, 48 h
OVCAR-4 [4] = assay: Growth inhibition of human OVCAR4 cells assessed as cell growth at 100 uM incubated for 48 hrs by sulforhodamine B assay relative to control; conditions: OVCAR-4, 48 h, read-out: Activity
HCC 2998 [5] = assay: Growth inhibition of human HCC2998 cells assessed as cell growth at 1 uM incubated for 48 hrs by sulforhodamine B assay relative to control; conditions: HCC 2998, 48 h, read-out: Activity
A498 = assay: Growth inhibition of human A498 cells assessed as cell growth at 1 uM incubated for 48 hrs by sulforhodamine B assay relative to control; conditions: A498, 48 h, read-out: Activity
TK-10 [6] = assay: Growth inhibition of human TK10 cells assessed as cell growth at 1 uM incubated for 48 hrs by sulforhodamine B assay relative to control; conditions: TK-10, 48 h, read-out: Activity
OVCAR-3 = assay: Growth inhibition of human OVCAR3 cells assessed as cell growth at 0.01 uM incubated for 48 hrs by sulforhodamine B assay relative to control; conditions: OVCAR-3, 48 h, read-out: Activity
Hs-578T [7] = assay: Growth inhibition of human Hs 578T cells assessed as cell growth at 0.01 uM incubated for 48 hrs by sulforhodamine B assay relative to control; conditions: read-out: Activity
ACHN = assay: Growth inhibition of human ACHN cells assessed as cell growth at 100 uM incubated for 48 hrs by sulforhodamine B assay relative to control; conditions: read-out: Activity
UO-31 = assay: Growth inhibition of human UO31 cells assessed as cell growth at 0.01 uM incubated for 48 hrs by sulforhodamine B assay relative to control; conditions: UO-31, 48 h, read-out: Activity
HCC 2998 [8] = assay: Growth inhibition of human HCC2998 cells assessed as cell growth at 0.01 uM incubated for 48 hrs by sulforhodamine B assay relative to control; conditions: HCC 2998, 48 h, read-out: Activity
HCT-15 = assay: Growth inhibition of human HCT15 cells assessed as cell growth at 1 uM incubated for 48 hrs by sulforhodamine B assay relative to control; conditions: HCT-15, 48 h, read-out: Activity
OVCAR-4 [9] = assay: Growth inhibition of human OVCAR4 cells assessed as cell growth at 1 uM incubated for 48 hrs by sulforhodamine B assay relative to control; conditions: OVCAR-4, 48 h, read-out: Activity
PC-3 [10] = assay: Growth inhibition of human PC3 cells assessed as cell growth at 0.01 uM incubated for 48 hrs by sulforhodamine B assay relative to control; conditions: PC-3, 48 h, read-out: Activity
A549 = assay: Growth inhibition of human A549/ATCC cells assessed as cell growth at 0.1 uM incubated for 48 hrs by sulforhodamine B assay relative to control; conditions: A549, 48 h, read-out: Activity
MCF7 = assay: Growth inhibition of human MCF7 cells incubated for 48 hrs by sulforhodamine B assay; conditions: MCF7, 48 h; for TGI: read-out: pTGI (converted)
MDA-MB-231 = assay: Growth inhibition of human MDA-MB-231 cells assessed as cell growth at 1 uM incubated for 48 hrs by sulforhodamine B assay relative to control; conditions: MDA-MB-231, 48 h, read-out: Activity
[11] = read-out: LC50 (the source's name)
[12] = read-out: pLC50 (the source's name) (converted)

In the case of c1ccc2c3c([nH]c2c1)C(c1ccc(C2NCCc4c2[nH]c2ccccc42)cc1)NCC3 (racemic), the growth at 0.01 µM (NCI-H322M) is reported as 92%, the growth at 0.1 µM (TK-10 [1]) is reported as 96% and the growth at 100 µM (NCI-H460) is reported as 85%. It also gave a growth at 0.1 µM (IGROV-1) of 92%, a growth at 1 µM (NCI/ADR-RES) of 78% and a GI50 (HL-60(TB); read-out: GI50) of 1.13 µM. It also gave a CC50 (HL-60(TB); [11]) of 6.99 µM, a TGI (HL-60(TB); read-out: TGI) of 2.81 µM and a GI50 (HL-60(TB); read-out: pGI50 (converted)) of 1.12 µM. It also gave a CC50 (HL-60(TB); [12]) of 6.92 µM, a TGI (HL-60(TB); read-out: pTGI (converted)) of 2.82 µM and a growth at 100 µM (COLO 205) of 84%. The GI50 (Malme-3M; read-out: GI50) was 1.55 µM, the CC50 (Malme-3M; [11]) was 6.24 µM and the TGI (Malme-3M; read-out: TGI) was 3.11 µM. It also gave a GI50 (Malme-3M; read-out: pGI50 (converted)) of 1.55 µM, a CC50 (Malme-3M; [12]) of 6.17 µM and a TGI (Malme-3M; read-out: pTGI (converted)) of 3.09 µM. It also gave a GI50 (PC-3 [2]; read-out: GI50) of 1.27 µM, a CC50 (PC-3 [2]; [11]) of 5.69 µM and a TGI (PC-3 [2]; read-out: TGI) of 2.69 µM. It also gave a GI50 (PC-3 [2]; read-out: pGI50 (converted)) of 1.26 µM, a CC50 (PC-3 [2]; [12]) of 5.75 µM and a TGI (PC-3 [2]; read-out: pTGI (converted)) of 2.69 µM. The growth at 100 µM (Hs-578T [3]) was -65%, the growth at 0.1 µM (SK-MEL-28) was 96% and the CC50 (MDA-MB-468; [11]) was 5.01 µM. The GI50 (MDA-MB-468; read-out: pGI50 (converted)) was 0.363 µM, the CC50 (MDA-MB-468; [12]) was 5.01 µM and the TGI (MDA-MB-468; read-out: pTGI (converted)) was 1.35 µM. For the same compound, the growth at 100 µM (OVCAR-5) was 90%, the growth at 0.1 µM (HCT-116) was 89% and the CC50 (MOLT-4; [11]) was 8.03 µM. For the same compound, the GI50 (MOLT-4; read-out: pGI50 (converted)) was 0.38 µM, the CC50 (MOLT-4; [12]) was 7.94 µM and the TGI (MOLT-4; read-out: pTGI (converted)) was 1.55 µM. It also gave a growth at 100 µM (OVCAR-4 [4]) of 93%, a growth at 1 µM (HCC 2998 [5]) of 10% and a growth at 1 µM (A498) of 65%. For the same compound, the growth at 1 µM (TK-10 [6]) was 97%, the growth at 0.01 µM (OVCAR-3) was 100% and the growth at 0.01 µM (Hs-578T [7]) was 93%. It also gave a growth at 100 µM (ACHN) of -91%, a growth at 0.01 µM (UO-31) of 89% and a growth at 0.01 µM (HCC 2998 [8]) of 91%. For the same compound, the growth at 1 µM (HCT-15) was 24%, the growth at 1 µM (OVCAR-4 [9]) was 59% and the growth at 0.01 µM (PC-3 [10]) was 96%. The growth at 0.1 µM (A549) was 95%, the CC50 (MCF7; [11]) was 6.1 µM and the GI50 (MCF7; read-out: pGI50 (converted)) was 0.389 µM. The CC50 (MCF7; [12]) was 6.17 µM, the TGI (MCF7) was 1.74 µM and the growth at 1 µM (MDA-MB-231) was 3%.
For c1ccc2[nH]c(-c3ccc(-c4nccc5c4[nH]c4ccccc45)cc3)nc2c1, the growth at 0.01 µM (NCI-H322M) was 92%, the growth at 0.1 µM (TK-10 [1]) was 94% and the growth at 100 µM (NCI-H460) was 38%. For the same compound, the growth at 0.1 µM (IGROV-1) was 99%, the growth at 1 µM (NCI/ADR-RES) was 98% and the GI50 (HL-60(TB); read-out: GI50) was 2.03 µM. For the same compound, the CC50 (HL-60(TB); [11]) was greater than 1 µM, the TGI (HL-60(TB); read-out: TGI) was 4.59 µM and the GI50 (HL-60(TB); read-out: pGI50 (converted)) was 2.04 µM. For the same compound, the CC50 (HL-60(TB); [12]) was greater than 100 µM, the TGI (HL-60(TB); read-out: pTGI (converted)) was 4.57 µM and the growth at 100 µM (COLO 205) was 65%. For the same compound, the GI50 (Malme-3M; read-out: GI50) was 1.85 µM, the CC50 (Malme-3M; [11]) was 7.07 µM and the TGI (Malme-3M; read-out: TGI) was 3.61 µM. It also gave a GI50 (Malme-3M; read-out: pGI50 (converted)) of 1.86 µM, a CC50 (Malme-3M; [12]) of 7.08 µM and a TGI (Malme-3M; read-out: pTGI (converted)) of 3.63 µM. For the same compound, the GI50 (PC-3 [2]; read-out: GI50) was 8.59 µM, the CC50 (PC-3 [2]; [11]) was 6.68 µM and the GI50 (PC-3 [2]; read-out: pGI50 (converted)) was 8.51 µM. It also gave a CC50 (PC-3 [2]; [12]) of 66.1 µM, a TGI (PC-3 [2]; read-out: pTGI (converted)) of 25.1 µM and a growth at 100 µM (Hs-578T [3]) of 46%. For the same compound, the growth at 0.1 µM (SK-MEL-28) was 98%, the GI50 (MDA-MB-468; read-out: GI50) was 2.52 µM and the CC50 (MDA-MB-468; [11]) was 4.97 µM. The TGI (MDA-MB-468; read-out: TGI) was 6.62 µM, the GI50 (MDA-MB-468; read-out: pGI50 (converted)) was 2.51 µM and the CC50 (MDA-MB-468; [12]) was 50.1 µM. For the same compound, the TGI (MDA-MB-468; read-out: pTGI (converted)) was 6.61 µM, the growth at 100 µM (OVCAR-5) was 62% and the growth at 0.1 µM (HCT-116) was 96%. It also gave a GI50 (MOLT-4; read-out: GI50) of 2.32 µM, a CC50 (MOLT-4; [11]) of 7.51 µM and a TGI (MOLT-4; read-out: TGI) of 6.11 µM. For the same compound, the GI50 (MOLT-4; read-out: pGI50 (converted)) was 2.29 µM, the CC50 (MOLT-4; [12]) was 75.9 µM and the TGI (MOLT-4; read-out: pTGI (converted)) was 6.17 µM. The growth at 100 µM (OVCAR-4 [4]) was 42%, the growth at 1 µM (HCC 2998 [5]) was 96% and the growth at 1 µM (A498) was 92%. The growth at 1 µM (TK-10 [6]) was 96%, the growth at 0.01 µM (OVCAR-3) was 101% and the growth at 0.01 µM (Hs-578T [7]) was 99%. The growth at 100 µM (ACHN) was 98%, the growth at 0.01 µM (UO-31) was 89% and the growth at 0.01 µM (HCC 2998 [8]) was 96%. The growth at 1 µM (HCT-15) was 93%, the growth at 1 µM (OVCAR-4 [9]) was 83% and the growth at 0.01 µM (PC-3 [10]) was 98%. It also gave a growth at 0.1 µM (A549) of 98%, a GI50 (MCF7; read-out: GI50) of 3.56 µM and a CC50 (MCF7; [11]) of 8.86 µM. For the same compound, the GI50 (MCF7; read-out: pGI50 (converted)) was 3.55 µM, the CC50 (MCF7; [12]) was 89.1 µM and the TGI (MCF7) was 17.4 µM. The growth at 1 µM (MDA-MB-231) was 99%.
